Experimental data: patent EP0092060A1, “Pharmaceutical products in sustained-release form, and their preparation process” (LABORATORI PROPHIN Industria Chimica Farmaceutica S.p.A., priority 1982, dated 1983)
Each block holds one compound with its values, some of them ahead of it.

Experiments:
[1] = cited from earlier work
[2] = Pharmacokinetic parameters obtained in man, used to calculate the optimum hourly dose; conditions: human, in vivo, read-out: elimination constant (Kel) (converted)
[3] = Drug release (dissolution), USP XX paddle apparatus, distilled water at 37°C; assay type: physicochemical; conditions: for time to total release: drug simply pasted/mixed into the polymer support matrix (uncoated nuclei); for release kinetics / release rate: nuclei covered with the diffusion regulating film; for release rate: during the release period; for % drug released: distilled water at 37°C, average of 6 determinations; for influence of the second film on the drug diffusion rate: nuclei with first and second films compared with first film only
Protocol: The Tiapride release was monitored for the uncoated nuclei, the nuclei with the first film applied, and the finished nuclei also comprising the second film.
A USP XX paddle apparatus was used, the dissolving medium being distilled water at 37°C.
The obtained results given hereinafter are the average of 6 determinations.
The Diltiazem release rate was measured on noncoated nuclei, nuclei coated with the first film and the finalized form with the second film coating.
A USP XX paddle apparatus was used and the dissolving medium was distilled water at 37°C.

k el [2]: 4.81e-05 s⁻¹
time to total release [3]: totally released within two hours
release kinetics [3]: zero order
release rate [3]: 10 to 15 mg/h
% drug released ([3]; nuclei covered with the first and second films, 1 hour): 0%
% drug released ([3]; nuclei covered with the first and second films, 2 hours): 1%
% drug released ([3]; nuclei covered with the first and second films, 3 hours): 16%
% drug released ([3]; nuclei covered with the first and second films, 4.5 hours): 34%
% drug released ([3]; nuclei covered with the first and second films, 5.5 hours): 44%
% drug released ([3]; nuclei covered with the first and second films, 6.5 hours): 57%
% drug released ([3]; nuclei covered with the first and second films, 7.5 hours): 71%
% drug released ([3]; nuclei covered with the first and second films, 8.5 hours): 83%
% drug released ([3]; nuclei covered with the first film, 1 hour): 2%
% drug released ([3]; nuclei covered with the first film, 2 hours): 4%
% drug released ([3]; nuclei covered with the first film, 3 hours): 14%
% drug released ([3]; nuclei covered with the first film, 3.5 hours): 19.3%
% drug released ([3]; nuclei covered with the first film, 4.5 hours): 34%
% drug released ([3]; nuclei covered with the first film, 5 hours): 47%
% drug released ([3]; nuclei covered with the first film, 6 hours): 57%
% drug released ([3]; nuclei covered with the first film, 7 hours): 69%
% drug released ([3]; nuclei covered with the first film, 8 hours): 83%
influence of the second film on the drug diffusion rate [3]: practically no influence
% drug released ([3]; uncoated nuclei, 15 min): 37.8%
% drug released ([3]; uncoated nuclei, 30 min): 51.6%
% drug released ([3]; uncoated nuclei, 60 min): 71.1%
% drug released ([3]; uncoated nuclei, 90 min): 80.3%
% drug released ([3]; uncoated nuclei, 120 min): 86.0%
Compound: CCN(CC)CCNC(=O)c1cc(S(C)(=O)=O)ccc1OC.Cl [Tiapride, N-diethylaminoethyl-2-methoxy-5-methylsulphonyl-benzamide hydrochloride]
hematic peak after administering 100 mg (Cp) ([1]; in man, 100 mg): 0.8 mg/L
half life ([1]; in man): 4 h
therapeutic range ([1]; in man): 0.6 - 0.9 mg/l of plasma

k el [2]: 3.42e-05 s⁻¹
time to total release [3]: totally released within two hours
release kinetics [3]: on the order of zero
release rate [3]: 10 to 15 mg/h
influence of the second film on the drug diffusion rate [3]: practically no effect
Compound: COc1ccc([C@@H]2Sc3ccccc3N(CCN(C)C)C(=O)[C@@H]2OC(C)=O)cc1 [Diltiazem]
distribution volume (Vd) ([1]; humans, unit not given): 1065
half life ([1]; in man): 4 h
